In patent publication US20150018299A1, “TREATMENT OF LIVER CONDITIONS” (CAN-FITE BIOPHARMA LTD., priority 2012, published 2015):
“And” between values parts separate entries of the source, which are not always exact repeats. Equal entries are not always repeated.

Columns and labels:
[1] = system: patients with advanced hepatocellular carcinoma (HCC); test: Phase 1-2 dose-escalation study of oral CF102: overall survival and clinical activity; type: in vivo, human; conditions: for Survival from start of CF102: individual subjects
Source text: All patients were over the age of 18 with incurable advanced, refractory, or metastatic hepatocellular carcinoma (HCC), documented by cytology and/or histology for patients without underlying cirrhosis or according to the American Association for the Study of Liver Diseases Practice Guideline algorithm for patients with underlying cirrhosis. All patients had measurable disease, according to Response Evaluation Criteria in Solid Tumors (RECIST); […] The trial employed a conventional “three plus three” design. […] At the first stage nine patients were enrolled for the dose escalation phase and then additional nine were enrolled for the dose confirmation phase. Furthermore, nine patients have undergone intra-subject dose escalation per protocol. Subjects returned for a follow-up visit 28 days after completion of the last dose of study drug. […] Safety data analysis was conducted on all subjects who received at least one dose of CF102. The number and percentage of subjects who experienced one or more AEs were summarized by dose level group, relationship to study drug, and severity. AEs were coded using Medical Dictionary for Regulatory Activities (MedDRA) terminology. Clinical laboratory parameters were summarized using descriptive statistics, by post-dosing shifts relative to baseline, and data listings of clinically significant abnormalities. Vital signs and ECG data were summarized by changes from baseline values at each dose level using descriptive statistics. Pharmacokinetic parameters, including AUC (0-8 h), Cmax, Cmin, and Tmax was estimated. Comparisons across dose levels were made to assess proportionality. Overall survival was calculated using the Kaplan-Meier method.

[2] = system: patients with hepatocellular carcinoma (HCC); test: Phase 1-2 study of oral CF102: liver function parameters over 6 months; type: in vivo, human; conditions: serum, over a 6 months period
Source text: The trial employed a conventional “three plus three” design. […] At the first stage nine patients were enrolled for the dose escalation phase and then additional nine were enrolled for the dose confirmation phase. Furthermore, nine patients have undergone intra-subject dose escalation per protocol. Subjects returned for a follow-up visit 28 days after completion of the last dose of study drug.

[3] = human, in vivo
Source text: The number and percentage of subjects who experienced one or more AEs were summarized by dose level group, relationship to study drug, and severity. AEs were coded using Medical Dictionary for Regulatory Activities (MedDRA) terminology. Clinical laboratory parameters were summarized using descriptive statistics, by post-dosing shifts relative to baseline, and data listings of clinically significant abnormalities. Vital signs and ECG data were summarized by changes from baseline values at each dose level using descriptive statistics. Pharmacokinetic parameters, including AUC (0-8 h), Cmax, Cmin, and Tmax was estimated. Comparisons across dose levels were made to assess proportionality. Overall survival was calculated using the Kaplan-Meier method.

## CNC(=O)[C@H]1O[C@@H](n2cnc3c(NCc4cccc(I)c4)nc(Cl)nc32)[C@H](O)[C@@H]1O [CF102, 2-Chloro-N^6-(3-iodobenzyl)-adenosine-5′-N-methyluronamide]
[1]; 12 sorafenib failures
  Overall survival, range: 3.5-13.2 months
[1]; 12 sorafenib failures, CF102 as second line therapy
  Median overall survival (OS): 7 months and 7.0 months
[1]; all 18 subjects
  Median overall survival (OS): 7.82 months and 7.8 months
  Overall survival, range: 3.5-27.3 months
[1]; five Child-Pugh B patients
  Median overall survival (OS): 8.1 months
  Overall survival, range: 7.0-13.2 months
[1]; starting dose 1 mg BID oral
  Survival from start of CF102: 7.1 months and 5.6 months and 13.2** months and 7.0 months and 8.2 months and 27.3* months
[1]; starting dose 5 mg BID oral
  Survival from start of CF102: 4.1 months and 7.1 months and 10.6 months and 10.7 months and 3.5 months and 4.2 months
[1]; starting dose 25 mg BID oral
  Survival from start of CF102: 8.3 months and 8.1 months and 7.6 months and 7.0 months and 12.6 months and 8.4 months
[1]; one subject
  Period of Stable Disease (SD) by RECIST criteria: 10 months
[1]; one subject, continuing on drug
  Time receiving CF102: ≥ 41 months
[2]
  Liver function parameters: ALT, AST, albumin, bilirubin, prothrombin time, ALK phosphatase, α-fetoprotein: remained stable
[3]
  Plasma levels: > 0.66 nM
